Counter-ions that a name gives are not always drawn.
Experiments:
human Cdk-4/D1 = molecular target: T1, human Cdk-4/D1 (Homo sapiens, UniProt P11802); assay: Cdk4/Cyclin D1 kinase assay; format: biochemical; details: for IC50: phosphorylation of GST-Rb, 32P-ATP filter plate, 30 min at 30° C.; for Ratio of IC50 Cdk2/E:Cdk4/D1: selectivity, Cdk2/E IC50 over Cdk4/D1 IC50
T1 construct: made in house; host or cells: Sf9 insect cells (baculovirus)
Source text: (§1) Cdk4/Cyclin D1 Kinase Assay and Cdk2/Cyclin E Kinase Assay
(§2) The assays measure phosphorylation of retinoblastoma protein (Rb) by Cdk4 or Cdk2 upon activation by cyclin D1 or cyclin E, respectively, through the transfer of (γ^32P)-phosphate from γ^32P-ATP in a 96-well filter plate assay.
(§3) Cdk4 or Cdk2 was co-expressed with cyclin D1 or cyclin E, respectively, by a baculovirus expression system in insect cells. For this, 1×10^7 Sf9 cells were coinfected with baculoviruses containing human Cdk-4 or 2 and cyclin D1 or E genes and after 72 hours cells were lysed in 500 μl of a lysis buffer (50 mM HEPES (pH 7.5), 10 mM MgCl2, 1 mM DTT, 5 μg/ml of aprotinin, 5 μg/ml of leupeptin, 0.1 mM NaF, 0.2 mM phenylmethylsulfonyl fluoride (PMSF), and sodium orthovanadate). Centrifuged lysate was purified on a GST-sepharose column. Purity of the proteins was checked by SDS-PAGE followed by western blots using specific antibodies (Santacruz Biotec, USA) to Cdk4 or Cdk2.
GST-retinoblastoma (Rb) (aa 776-928) fusion protein is expressed in the bacteria E. coli and purified by GSH-Sepharose affinity chromatography. The GST-Rb bound to these beads served as the substrate in the assay.
(§4) Quantitation was by scintillation detection of (^32P)-GST-Rb in 96-well filter plates using Top Count scintillation 96-well counter (Packard, USA).
The Cdk 4 or Cdk 2 enzyme assay was run in 96-well format using Millipore Multiscreen filtration plates. All assay steps took place in a single filter plate (Unifilter plates, Packard, USA). The filtration wells were pre-wet with kinase buffer (100 μl/well) and the solution was then removed by the application of vacuum, with the filter plate on a vacuum manifold and the vacuum on. 50 μl of GST-Rb bound to GSH-Sepharose beads in kinase buffer (0.5 μg GST-Rb/50 μl) was added to each well and vacuum was applied to removed the buffer. A further 25 μl of a reaction mix containing ATP (cold+hot) and phosphatase inhibitors diluted in kinase buffer were added to each well, followed by the addition of test compound (4× final concentration in kinase buffer) or kinase buffer (control) in an additional 25 μl volume. Finally 50 μl (100 ng) of human Cdk-4/D1 or Cdk-2/E enzyme in kinase buffer was added to each well to initiate the reaction. The reaction was incubated for 30 min at 30° C. After the reaction was complete, vacuum was applied and the plate was washed with the wash buffer (TNEN buffer) three times. The filter plate was air-dried and placed in a Multiscreen adapter plate. To each well, 30 μl Packard Microscint-O cocktail was added and the plate was covered with a Top-Seal A film. The plate was counted in a Packard Top Count Scintillation Counter for 10 min. […]

human Cdk-2/E = molecular target: T2, human Cdk-2/E (Homo sapiens, UniProt P24941); assay: Cdk2/Cyclin E kinase assay; format: biochemical; details: phosphorylation of GST-Rb, 32P-ATP filter plate, 30 min at 30° C.
T2 construct: made in house; host or cells: Sf9 insect cells (baculovirus)
Source text: as §1, §2
as §3, with “Cdk2. […]” for “Cdk2.”
as §4
The Cdk 4 or Cdk 2 enzyme assay was run in 96-well format using Millipore Multiscreen filtration plates. […] The plate was counted in a Packard Top Count Scintillation Counter for 10 min. […]

PC-3 Prostate [1] = assay: Cytotoxicity assay (MTS), PC-3; format: cell-based, human
Procedure: (§5) In Vitro Cell Proliferation and Cytotoxicity Assays:
(§6) Exponentially growing cultures of ten human cancerous cell lines (HL-60 Promyelocytic Leukemia, PC-3 Prostate, H-460 Lung, MDA-MB-231 Breast, MCF-7 Breast, HeLa Cervix, Colo-205 Colon, H9 Lymphoma (T Cells), U-937 Histiocytic Lymphoma (monocytes) and CaCO-2 Colon) obtained from NCCS, Pune, India were used. The in vitro cell proliferation (NCI, USA protocol) and cytotoxicity assays were carried out using standard procedures viz. ^3H-Thymidine uptake and MTS assay, respectively (For ^3H-Thymidine uptake: Cell Biology, A Laboratory Handbook, 1998, Vol 1 Ed Julio E. Celis, and For MTS assay: Promega Protocol, USA, 2000). In the ^3H-Thymidine uptake assay, cells were harvested after 72 hours onto GF/B unifilter plates (Packard, USA) using a Packard Filtermate Universal harvester and the plates were counted on a Packard TopCount 96-well liquid scintillation counter. The concentration of compound at which 50% of proliferative activity was inhibited (IC50) and the degree of toxicity of compound were calculated for representative compounds and their pharmaceutically acceptable salts described in the Examples.

MCF-7 Breast [2] = assay: Cytotoxicity assay (MTS), MCF-7; format: cell-based, human
Procedure: as §5, §6

MCF-7 Breast [3] = assay: In vitro cell proliferation assay (3H-Thymidine uptake), MCF-7; format: cell-based; details: Homo sapiens, MCF7, 72 hours
Procedure: as §5, §6

MDAMB-231 Breast [4] = assay: In vitro cell proliferation assay (3H-Thymidine uptake), MDA-MB-231; format: cell-based; details: Homo sapiens, 72 hours
Procedure: as §5, §6

H460 Lung [5] = assay: In vitro cell proliferation assay (3H-Thymidine uptake), H460; format: cell-based; details: Homo sapiens, NCI-H460, 72 hours
Procedure: as §5, §6

H460 Lung [6] = assay: Cytotoxicity assay (MTS), H460; format: cell-based, human
Procedure: as §5, §6

HeLa Cervix [7] = assay: Cytotoxicity assay (MTS), HeLa; format: cell-based, human
Procedure: as §5, §6

HeLa Cervix [8] = assay: In vitro cell proliferation assay (3H-Thymidine uptake), HeLa; format: cell-based; details: Homo sapiens, 72 hours
Procedure: as §5, §6

MDAMB-231 Breast [9] = assay: Cytotoxicity assay (MTS), MDA-MB-231; format: cell-based, human
Procedure: as §5, §6

[10] = test system: U-937 Histiocytic lymphoma (monocytes); assay: Cytotoxicity assay (MTS), U-937; format: cell-based, human
Procedure: as §5, §6

PC-3 Prostate [11] = assay: In vitro cell proliferation assay (3H-Thymidine uptake), PC-3; format: cell-based; details: Homo sapiens, 72 hours
Procedure: as §5, §6

[12] = test system: U-937 Histiocytic lymphoma (monocytes); assay: In vitro cell proliferation assay (3H-Thymidine uptake), U-937; format: cell-based; details: Homo sapiens, 72 hours
Procedure: as §5, §6

T1 sequence (P11802 whole entry): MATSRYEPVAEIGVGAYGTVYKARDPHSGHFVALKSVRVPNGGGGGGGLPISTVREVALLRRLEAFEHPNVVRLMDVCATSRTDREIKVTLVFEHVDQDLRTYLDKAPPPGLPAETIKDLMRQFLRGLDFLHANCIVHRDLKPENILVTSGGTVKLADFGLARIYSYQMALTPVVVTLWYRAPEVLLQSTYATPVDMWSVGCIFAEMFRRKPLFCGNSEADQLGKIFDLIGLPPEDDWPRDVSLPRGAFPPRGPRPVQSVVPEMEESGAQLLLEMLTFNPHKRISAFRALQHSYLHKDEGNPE
T1 sequence (P24385 whole entry partner): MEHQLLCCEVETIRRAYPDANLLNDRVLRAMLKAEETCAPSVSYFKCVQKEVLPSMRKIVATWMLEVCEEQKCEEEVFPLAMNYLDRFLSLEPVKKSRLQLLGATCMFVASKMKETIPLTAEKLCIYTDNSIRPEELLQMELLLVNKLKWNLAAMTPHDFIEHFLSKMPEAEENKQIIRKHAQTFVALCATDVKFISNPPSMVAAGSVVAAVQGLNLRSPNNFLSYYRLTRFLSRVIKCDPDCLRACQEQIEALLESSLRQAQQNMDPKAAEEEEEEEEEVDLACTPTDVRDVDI

COc1ccc(Br)c(-c2cc(=O)c3c(O)cc(O)c([C@@H]4CCN(C)[C@H]4CO)c3o2)c1 (single isomer, unassigned) [Example 36 (Compound A), (+)-trans-2-(2-Bromo-5-methoxy-phenyl)-5,7-dihydroxy-8-(2-hydroxymethyl-1-methyl-pyrrolidin-3-yl)-chromen-4-one]
IC50 (human Cdk-4/D1): 80 nM | Ratio of IC50 Cdk2/E:Cdk4/D1 (human Cdk-4/D1): 75.0 | IC50 (human Cdk-2/E): 6000 nM

CN1CC[C@@H](c2c(O)cc(O)c3c(=O)cc(-c4c(F)cccc4F)oc23)[C@@H]1CO (single isomer, unassigned) [Example 80, (+)-trans-2-(2,6-Difluoro-phenyl)-5,7-dihydroxy-8-(2-hydroxymethyl-1-methyl-pyrrolidin-3-yl)-chromen-4-one]
melting point: 242 to 244 °C | IC50 (human Cdk-4/D1): 280 nM | Ratio of IC50 Cdk2/E:Cdk4/D1 (human Cdk-4/D1): 31.2 | IC50 (human Cdk-2/E): 8750 nM

CN1CC[C@@H](c2c(O)cc(O)c3c(=O)cc(-c4ccccc4Cl)oc23)[C@@H]1CO [Example 14A, (+)-trans-2-(2-Chloro-phenyl)-5,7-dihydroxy-8-(2-hydroxymethyl-1-methyl-pyrrolidin-3-yl)-chromen-4-one]
degree of toxicity PC-3 Prostate (PC-3 Prostate [1]): ++ (50-70% toxic) | degree of toxicity MCF-7 Breast (MCF-7 Breast [2]): NT (not toxic ≦30%) | IC50 (MCF-7 Breast [3]): 500 to 1000 nM | IC50 (MDAMB-231 Breast [4]): 500 to 1000 nM | IC50 (H460 Lung [5]): 5000 to 10000 nM | degree of toxicity H460 Lung (H460 Lung [6]): NT (not toxic ≦30%) | degree of toxicity HeLa Cervix (HeLa Cervix [7]): ++ (50-70% toxic) | IC50 (HeLa Cervix [8]): 100 to 500 nM | degree of toxicity MDAMB-231 Breast (MDAMB-231 Breast [9]): NT (not toxic ≦30%) | degree of toxicity U-937 Histiocytic lymphoma (monocytes) [10]: + (30-50% toxic) | IC50 (PC-3 Prostate [11]): 500 to 1000 nM | IC50 [12]: 100 to 1000 nM

CN1CC[C@H](c2c(O)cc(O)c3c(=O)cc(-c4ccccc4Cl)oc23)[C@H](O)C1 (relative stereo) [Flavopiridol, cis-{2-(2-Chloro-phenyl)-5,7-dihydroxy-8-(3-hydroxy-1-methyl-piperidin-4-yl)-chromen-4-one hydrochloride}, reference compound]
degree of toxicity PC-3 Prostate (PC-3 Prostate [1]): ++ (50-70% toxic) | degree of toxicity MCF-7 Breast (MCF-7 Breast [2]): + (30-50% toxic) | IC50 (MCF-7 Breast [3]): 500 nM | IC50 (MDAMB-231 Breast [4]): 100 nM | IC50 (H460 Lung [5]): 50 nM | degree of toxicity H460 Lung (H460 Lung [6]): + (30-50% toxic) | degree of toxicity HeLa Cervix (HeLa Cervix [7]): +++ (above 70% toxic) | IC50 (HeLa Cervix [8]): 100 to 500 nM | degree of toxicity MDAMB-231 Breast (MDAMB-231 Breast [9]): ++ (50-70% toxic) | degree of toxicity U-937 Histiocytic lymphoma (monocytes) [10]: ++ (50-70% toxic) | IC50 (PC-3 Prostate [11]): 50 to 100 nM | IC50 [12]: 100 nM

COc1cc(OC)c2c(=O)cc(-c3ccc(C(F)(F)F)cc3)oc2c1[C@@H]1CCN(C)[C@H]1CO (racemic) [Example 62, (±)-trans-8-(2-Hydroxymethyl-1-methyl-pyrrolidin-3-yl)-5,7-dimethoxy-2-(4-trifluoromethyl-phenyl)-chromen-4-one]
melting point: 114 to 115 °C

CN1CC[C@@H](c2c(O)cc(O)c3c(=O)cc(-c4ccccc4Br)oc23)[C@@H]1CO [Example 17, (+)-trans-2-(2-Bromo-phenyl)-5,7-dihydroxy-8-(2-hydroxymethyl-1-methyl-pyrrolidin-3-yl)-chromen-4-one]
degree of toxicity PC-3 Prostate (PC-3 Prostate [1]): NT (not toxic ≦30%) | melting point: 235 to 237 °C | degree of toxicity MCF-7 Breast (MCF-7 Breast [2]): + (30-50% toxic) | IC50 (MCF-7 Breast [3]): 500 to 1000 nM | IC50 (MDAMB-231 Breast [4]): 100 nM | IC50 (H460 Lung [5]): > 10000 nM | degree of toxicity H460 Lung (H460 Lung [6]): NT (not toxic ≦30%) | degree of toxicity HeLa Cervix (HeLa Cervix [7]): + (30-50% toxic) | IC50 (HeLa Cervix [8]): 100 to 1000 nM | degree of toxicity MDAMB-231 Breast (MDAMB-231 Breast [9]): NT (not toxic ≦30%) | degree of toxicity U-937 Histiocytic lymphoma (monocytes) [10]: + (30-50% toxic) | IC50 (PC-3 Prostate [11]): 1000 to 10000 nM | IC50 [12]: 100 to 1000 nM

CN1CC[C@@H](c2c(O)cc(O)c3c(=O)cc(-c4ccccc4F)oc23)[C@@H]1CO [Example 21, (+)-trans-2-(2-Fluoro-phenyl)-5,7-dihydroxy-8-(2-hydroxymethyl-1-methyl-pyrrolidin-3-yl)-chromen-4-one]
melting point: 206 to 208 °C

CN1CC[C@@H](c2c(O)cc(O)c3c(=O)cc(-c4ccc(Br)cc4Cl)oc23)[C@@H]1CO [Example 100, (+)-trans-2-(4-Bromo-2-chloro-phenyl)-5,7-dihydroxy-8-(2-hydroxymethyl-1-methyl-pyrrolidin-3-yl)-chromen-4-one]
melting point: 155 to 156 °C

CN1CC[C@@H](c2c(O)cc(O)c3c(=O)cc(-c4cc(O)ccc4Cl)oc23)[C@@H]1CO.Cl
melting point: 189 to 190 °C

From US7884127B2, “Inhibitors of cyclin dependent kinases and their use” (Pirimal Life Sciences Ltd., priority 2002, dated 2011)
